From patent publication US8232407B2, “Nitrogenous heterocyclic compounds with insecticidal activity, and the preparation and use thereof” (East China University of Science and Technology, priority 2008, dated 2012)

What was measured:
Format in all cases: in vivo
Aphis craccivoral = test: Insecticidal activities to aphids, immersion method; conditions: for mortality at 500 ppm: Aphis, read-out: Aphis craccivoral Mortality (%) 500 ppm
Summary of the method: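 Wingless adult aphids feeding on bean sprouts were dipped 5 s in 500 ppm compound (DMF stock diluted in 0.2 mL/L aqueous Triton X-100), blotted and held at 23° C. Dead counted at 24 h, three replicates; mortality corrected against Triton-only controls.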

Nilaparvata lugens = test: Insecticidal activities to plant hopper, spraying method; conditions: for mortality at 500 ppm: Nilaparvata lugens, read-out: Nilaparvata lugens Mortality (%) 500 ppm
Summary of the method: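 Nilaparvata lugens, 10 insects per tumbler, sprayed with 2 ml compound in acetone at 0.79-500 ppm, three replicates, aqueous acetone control. Dead insects counted after 24 h; mortality corrected against control survival.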

[1] = tested on: Pseudaletia separate Walker; test: Insecticidal activities to armyworm, leaf dipping and feeding
Summary of the method: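 Maize leaves dipped 3 s in acetone-formulated compound at 500 down to 1.57 ppm, dried and fed to armyworms, 10 insects per treatment in triplicate, aqueous acetone as control. Mortality was counted after 24 hours and corrected against control survival.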

Plutella xylostella = test: Insecticidal activities to diamondback moth, feeding dipped leaves; conditions: for mortality at 500 ppm: Plutella xylostella, read-out: Plutella xylostella Mortality (%) 500 ppm
Summary of the method: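 Leaf-dip feeding assay: fresh cabbage leaves dipped 3 s in test solution, air-dried and fed to Plutella xylostella, 10 insects per treatment, three replicates, water control. Deaths counted after 24 h; mortality corrected against survival in the control group.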

[2] = 500 ppm, spraying method, counted after 24 hours
[3] = 500 ppm, leaf dipping and feeding, counted after 24 hours
[4] = 500 ppm, feeding dipped leaves, counted after 24 hours

Compound	Aphis craccivoral Mortality (%) 500 ppm (Aphis craccivoral; in vivo) [%]	Nilaparvata lugens Mortality (%) 500 ppm (Nilaparvata lugens; in vivo) [%]	Pseudaletia separate Walker Mortality (%) 500 ppm ([1]; in vivo) [%]	Plutella xylostella Mortality (%) 500 ppm (Plutella xylostella; in vivo) [%]	mortality at 500 ppm (Aphis craccivoral; 500 ppm, immersion method) [%]	mortality at 500 ppm (Nilaparvata lugens; [2]) [%]	Pseudaletia separate Walker Mortality (%) 500 ppm [1, 3] [%]	mortality at 500 ppm (Plutella xylostella; [4]) [%]	Aphis craccivoral Mortality (%) 500 ppm (Aphis craccivoral; 500 ppm, immersion method) [%]	Nilaparvata lugens Mortality (%) 500 ppm (Nilaparvata lugens; [2]) [%]	Plutella xylostella Mortality (%) 500 ppm (Plutella xylostella; [4]) [%]
CC(=C(C1=NCCN1Cc1ccc(Cl)nc1)[N+](=O)[O-])c1ccsc1 [Compound 116]	89	94	76	64	–	–	–	–	–	–	–
C[N+]1=C(C(=Cc2cccs2)[N+](=O)[O-])N(Cc2cnc(Cl)s2)CC1.[Cl-] [Compound 280]	100	100	100	100	–	–	–	–	–	–	–
CC(c1ccc(Cl)nc1)N1CCN=C1C(=Cc1ccco1)[N+](=O)[O-] (racemic) [Compound 121]	100	100	100	56	–	–	–	–	–	–	–
C[N+]1=C(C(=Cc2ccc(CO)o2)[N+](=O)[O-])N(Cc2ccc(Cl)nc2)CC1.[Cl-] [Compound 258]	100	100	100	100	–	–	–	–	–	–	–
O=[N+]([O-])C(=Cc1ccccc1O)C1=NCCN1Cc1ccc(Cl)nc1 [Compound 45]	56	76	89	23	–	–	–	–	–	–	–
O=[N+]([O-])/C(=C/c1ccoc1)C1=NCCN1Cc1ccc(Cl)nc1 [Compound 2, 2-chloro-5-((2-(2-(furan-3-yl)-1-nitrovinyl)-4,5-dihydro-imidazol-1-yl)-methyl) pyridine]	–	–	–	–	100	100	100	100	–	–	–
O=[N+]([O-])C(=Cc1cc(Br)c(Br)o1)C1=NCCN1Cc1ccc(Cl)nc1 [Compound 10]	100	100	100	100	–	–	–	–	–	–	–
Cc1ccc(C=C(C2=NCCCN2Cc2ccc(Cl)nc2)[N+](=O)[O-])o1 [Compound 57]	100	78	100	100	–	–	–	–	–	–	–
O=[N+]([O-])C(=Cc1cc(Br)co1)C1=NCCCN1Cc1ccc(Cl)nc1 [Compound 52]	100	100	100	100	–	–	–	–	–	–	–
CC(=C(C1=NCCN1Cc1ccc(Cl)nc1)[N+](=O)[O-])c1ccc(Br)s1 [Compound 119]	75	91	46	87	–	–	–	–	–	–	–
O=[N+]([O-])C(=Cc1oc(Br)cc1Br)C1=NCCCN1Cc1ccc(Cl)nc1 [Compound 56]	100	100	100	100	–	–	–	–	–	–	–
Cc1ccc(C=C(C2=[N+](C)CCN2Cc2ccc(Cl)nc2)[N+](=O)[O-])s1.[Cl-] [Compound 270]	100	100	100	100	–	–	–	–	–	–	–
O=[N+]([O-])C(=Cc1ccc(Br)s1)C1=NCCN1Cc1ccc(Cl)nc1 [Compound 20]	100	100	100	100	–	–	–	–	–	–	–
O=[N+]([O-])C(=Cc1ccc(CO)o1)C1=NCCN1CC1CCOC1 (centres unmarked) [Compound 102]	75	89	89	97	–	–	–	–	–	–	–
C[N+]1=C(C(=Cc2cc(Cl)cs2)[N+](=O)[O-])N(Cc2ccc(Cl)nc2)CC1.[Cl-] [Compound 264]	100	100	100	100	–	–	–	–	–	–	–
C[N+]1=C(/C(=C\c2ccc[nH]2)[N+](=O)[O-])N(Cc2cnc(Cl)s2)CC1.[Cl-] [Compound 284]	100	100	100	100	–	–	–	–	–	–	–

Compound	Aphis craccivoral Mortality (%) 500 ppm (Aphis craccivoral; in vivo) [%]	Nilaparvata lugens Mortality (%) 500 ppm (Nilaparvata lugens; in vivo) [%]	Pseudaletia separate Walker Mortality (%) 500 ppm ([1]; in vivo) [%]	Plutella xylostella Mortality (%) 500 ppm (Plutella xylostella; in vivo) [%]	mortality at 500 ppm (Aphis craccivoral; 500 ppm, immersion method) [%]	mortality at 500 ppm (Nilaparvata lugens; [2]) [%]	Pseudaletia separate Walker Mortality (%) 500 ppm [1, 3] [%]	mortality at 500 ppm (Plutella xylostella; [4]) [%]	Aphis craccivoral Mortality (%) 500 ppm (Aphis craccivoral; 500 ppm, immersion method) [%]	Nilaparvata lugens Mortality (%) 500 ppm (Nilaparvata lugens; [2]) [%]	Plutella xylostella Mortality (%) 500 ppm (Plutella xylostella; [4]) [%]
CC(=C(C1=NCCN1C(C)c1ccc(Cl)nc1)[N+](=O)[O-])c1ccco1 (racemic) [Compound 133]	48	50	90	68	–	–	–	–	–	–	–
CC(c1ccc(Cl)nc1)N1CCN=C1C(=Cc1ccc([N+](=O)[O-])o1)[N+](=O)[O-] (racemic) [Compound 124]	100	100	100	100	–	–	–	–	–	–	–
C[N+]1=C(C(=Cc2ccc(Cl)s2)[N+](=O)[O-])N(Cc2cnc(Cl)s2)CC1.[Cl-] [Compound 283]	100	100	100	100	–	–	–	–	–	–	–
O=[N+]([O-])C(=Cc1ccc([N+](=O)[O-])s1)C1=NCCN1Cc1cnc(Cl)s1 [Compound 85]	100	100	100	100	–	–	–	–	–	–	–
O=[N+]([O-])/C(=C/c1ccco1)C1=NCCN1Cc1ccc(Cl)nc1 [Compound 1, 2-chloro-5-((2-(2-(furan-2-yl)-1-nitrovinyl)-4,5-dihydroimidazol-1-yl)-methyl) pyridine]	–	–	–	–	100	100	100	100	–	–	–
C[N+]1=C(C(=Cc2ccsc2)[N+](=O)[O-])N(Cc2ccc(Cl)nc2)CC1.[Cl-] [Compound 260]	90	92	80	89	–	–	–	–	–	–	–
O=[N+]([O-])C(=Cc1ccc[nH]1)C1=NCCN1Cc1ccc(Cl)nc1 [Compound 31]	100	100	100	100	–	–	–	–	–	–	–
O=[N+]([O-])C(=Cc1sc(Cl)cc1Cl)C1=NCCN1Cc1ccc(Cl)nc1 [Compound 24]	–	–	–	–	–	–	100	–	100	100	100
O=[N+]([O-])C(=Cc1oc(Cl)cc1Cl)C1=NCCN1Cc1cnc(Cl)s1 [Compound 76]	100	100	100	100	–	–	–	–	–	–	–
CC(c1ccc(Cl)nc1)N1CCN=C1C(=Cc1cccs1)[N+](=O)[O-] (racemic) [Compound 127]	100	100	100	100	–	–	–	–	–	–	–
O=[N+]([O-])C(=Cc1ccc(Cl)s1)C1=NCCN1Cc1ccc(Cl)nc1 [Compound 19]	100	100	100	100	–	–	–	–	–	–	–
N#CC(=Cc1cc(Br)c(Br)o1)C1=NCCN1Cc1ccc(Cl)nc1 [Compound 144]	87	100	90	100	–	–	–	–	–	–	–
O=[N+]([O-])C(=Cc1cc(Cl)co1)C1=NCCN1CC1CCOC1 (centres unmarked) [Compound 96]	32	50	58	52	–	–	–	–	–	–	–
CCC(c1ccc(Cl)nc1)N1CCN=C1C(=Cc1ccc[nH]1)[N+](=O)[O-] (racemic) [Compound 132]	73	84	89	99	–	–	–	–	–	–	–
O=[N+]([O-])C(=Cc1ccoc1)C1=NCCCN1Cc1ccc(Cl)nc1 [Compound 47]	100	100	100	100	–	–	–	–	–	–	–
CC(c1ccc(Cl)nc1)N1CCN=C1C(=Cc1ccc(Cl)s1)[N+](=O)[O-] (racemic) [Compound 130]	100	100	100	76	–	–	–	–	–	–	–
